Patent US20150231236A1, “METHODS FOR TREATING PATIENTS WITH HYPERCHOLESTEROLEMIA THAT IS NOT ADEQUATELY CONTROLLED BY MODERATE-DOSE STATIN THERAPY” (Regeneron Pharmaceuticals, Inc., priority 2014, published 2015)

Test system: patients with hypercholesterolemia at high CV risk not adequately controlled with atorvastatin (20 mg or 40 mg)
Assay: Example 2: randomized, double-blind trial, lipid efficacy of mAb316P add-on to atorvastatin vs EZE add-on, atorvastatin dose doubling or switch to rosuvastatin
Assay type: in vivo, human
Settings: for LDL-C W24 % change from baseline, LS mean (SE): ITT population, treatment arm as labelled; for LDL-C W24 % change from baseline, LS mean (SE) / Proportion of Patients Reaching LDL-C goal (%) / reduced LDL-C levels by: week 24; for Proportion of Patients Reaching LDL-C goal (%): calculated LDL-C <70 mg/dL very high risk or <100 mg/dL high risk, combined estimate; for reduced LDL-C levels by: add-on mAb316P
Method: The present study was a randomized, double-blind, active-comparator, parallel-group study in patients at high CV risk with non-FH or heFH who are not adequately controlled with atorvastatin (20 mg or 40 mg) with or without other lipid-modifying therapy (LMT) (excluding EZE). The study design is illustrated in FIG. 1. Patients who entered the study were taking either atorvastatin 20 mg or atorvastatin 40 mg. The former patients were randomized to 1 of 3 treatment arms (arms 1 to 3); the latter patients were randomized to 1 of 4 treatment arms (arms 4 to 7). The treatment arms are as follows:
(1) mAb316P+atorvastatin 20 mg+placebo-EZE; (2) Placebo-mAb316P+atorvastatin 40 mg+placebo-EZE; and (3) Placebo-mAb316P+atorvastatin 20 mg+EZE 10 mg.
(4) mAb316P+atorvastatin 40 mg+placebo-EZE; (5) Placebo-mAb316P+atorvastatin 80 mg+placebo-EZE; (6). Placebo-mAb316P+rosuvastatin 40 mg+placebo-EZE; and (7) Placebo-mAb316P+atorvastatin 40 mg+EZE 10 mg.
(B) a double-blind treatment period of 24 weeks. Each patient received a SC injection Q2W (mAb316P or placebo-mAb316P) and was administered (or instructed to take) 2 oral blinded medications daily (a statin [atorvastatin or rosuvastatin] and EZE or placebo-EZE). The first injection of mAb316P or placebo-mAb316P was administered at the clinical site on day 1, after study assessments were completed, and as soon as possible after the patient was randomized into the study. The patient/caregiver administered subsequent injections outside of the clinic according to the dosing schedule. On days where the clinic study visit coincided with dosing, the dose of study drugs (injectable and oral) were administered after all study assessments had been performed and all laboratory samples collected. The last dose of mAb316P or placebo-mAb316P was administered at week 22. The last dose of daily oral study drugs was administered at week 24. At week 12, based on their baseline CV risk, certain patients randomized to mAb316P in a blinded manner, had their dose increased as follows:
Each patient received a subcutaneous (SC) injection once every two weeks (Q2W) (mAb316P or placebo-mAb316P) and took 2 oral blinded medications daily (a statin [atorvastatin or rosuvastatin] and EZE or placebo-EZE).
The injectable study treatment was a single SC injection of 1 mL for a 75 mg or 150 mg dose of mAb316P or placebo-mAb316P provided in an auto-injector, administered in the abdomen, thigh, or outer area of the upper arm. The first injection of study drug was administered at the clinical site, as soon as possible after the patient was randomized into the study. The patient was monitored at the clinical site for at least 30 minutes following the first injection. The patient/caregiver administered subsequent injections outside of the clinic, according to the dosing schedule. On days where the clinic study visit coincided with dosing, the dose of study drug was administered after all study assessments have been performed and all laboratory samples collected.
The dose of mAb316P was increased, in a blinded manner, from 75 mg to 150 mg SC Q2W, starting at week 12, based on baseline CV risk in the following circumstances:
The primary efficacy endpoint was the percent change in calculated LDL-C from baseline to week 24, which is defined as: 100× (calculated LDL-C value at week 24−calculated LDL-C value at baseline)/calculated LDL-C value at baseline. The baseline calculated LDL-C value was the last LDL-C level obtained before the first double-blind study drug injection. The calculated LDL-C at week 24 will be the LDL-C level obtained within the week 24 analysis window and during the main efficacy period. The main efficacy period was defined as the time from the first double-blind study drug injection up to 21 days after the last double-blind study drug injection or up to the upper limit of the week 24 analysis window, whichever comes first.
Total-C, HDL-C, TG, ApoB, ApoA-1, and Lp (a) were directly measured by a central laboratory. […]

mAb316P + ATV 40: treatment arm: mAb316P 75/150 mg Q2W + atorvastatin 40 mg daily
LDL-C W24 % change from baseline, LS mean (SE): −54.0% | Calculated LDL-C LS mean (SE), % Change from Baseline (Week 4): −56.5 (2.8) % | Calculated LDL-C LS mean (SE), Change from Baseline (Week 4): −63.2 (2.9) | Calculated LDL-C LS mean (SE), Value (mg/dL) (Week 4): 45.5 (2.9) mg/dL | Calculated LDL-C LS mean (SE), % Change from Baseline (Week 8): −55.7 (3.2) % | Calculated LDL-C LS mean (SE), Change from Baseline (Week 8): −63.4 (3.3) | Calculated LDL-C LS mean (SE), Value (mg/dL) (Week 8): 45.3 (3.3) mg/dL | Calculated LDL-C LS mean (SE), % Change from Baseline (Week 12): −50.5 (3.2) % | Calculated LDL-C LS mean (SE), Change from Baseline (Week 12): −56.9 (3.5) | Calculated LDL-C LS mean (SE), Value (mg/dL) (Week 12): 51.8 (3.5) mg/dL | Calculated LDL-C LS mean (SE), % Change from Baseline (Week 16): −56.9 (3.5) % | Calculated LDL-C LS mean (SE), Change from Baseline (Week 16): −64.3 (3.9) | Calculated LDL-C LS mean (SE), Value (mg/dL) (Week 16): 44.4 (3.9) mg/dL | Calculated LDL-C LS mean (SE), % Change from Baseline (Week 24): −54.0 (4.3) % | Calculated LDL-C LS mean (SE), Change from Baseline (Week 24): −62.3 (4.6) | Calculated LDL-C LS mean (SE), Value (mg/dL) (Week 24): 46.4 (4.6) mg/dL | Proportion of Patients Reaching LDL-C goal (%): 82.4%

CC(C)c1c(C(=O)Nc2ccccc2)c(-c2ccccc2)c(-c2ccc(F)cc2)n1CC[C@@H](O)C[C@@H](O)CC(=O)O [atorvastatin, reference compound]
LDL-C W24 % change from baseline, LS mean (SE) (listed as ATV 40): −5.0% | LDL-C W24 % change from baseline, LS mean (SE) (listed as ATV 80): −4.8% | Calculated LDL-C LS mean (SE), % Change from Baseline (Week 4, listed as ATV 40): −9.9 (3.4) % | Calculated LDL-C LS mean (SE), Change from Baseline (Week 4, listed as ATV 40): −12.9 (3.6) | Calculated LDL-C LS mean (SE), Value (mg/dL) (Week 4, listed as ATV 40): 88.9 (3.6) mg/dL | Calculated LDL-C LS mean (SE), % Change from Baseline (Week 4, listed as ATV 80): −11.7 (2.7) % | Calculated LDL-C LS mean (SE), Change from Baseline (Week 4, listed as ATV 80): −15.3 (2.9) | Calculated LDL-C LS mean (SE), Value (mg/dL) (Week 4, listed as ATV 80): 93.4 (2.9) mg/dL | Calculated LDL-C LS mean (SE), % Change from Baseline (Week 8, listed as ATV 40): −12.6 (3.8) % | Calculated LDL-C LS mean (SE), Change from Baseline (Week 8, listed as ATV 40): −15.1 (4.1) | Calculated LDL-C LS mean (SE), Value (mg/dL) (Week 8, listed as ATV 40): 86.7 (4.1) mg/dL | Calculated LDL-C LS mean (SE), % Change from Baseline (Week 8, listed as ATV 80): −13.1 (3.1) % | Calculated LDL-C LS mean (SE), Change from Baseline (Week 8, listed as ATV 80): −17.2 (3.2) | Calculated LDL-C LS mean (SE), Value (mg/dL) (Week 8, listed as ATV 80): 91.5 (3.2) mg/dL | Calculated LDL-C LS mean (SE), % Change from Baseline (Week 12, listed as ATV 40): −8.5 (3.9) % | Calculated LDL-C LS mean (SE), Change from Baseline (Week 12, listed as ATV 40): −11.9 (4.3) | Calculated LDL-C LS mean (SE), Value (mg/dL) (Week 12, listed as ATV 40): 89.9 (4.3) mg/dL | Calculated LDL-C LS mean (SE), % Change from Baseline (Week 12, listed as ATV 80): −14.5 (3.2) % | Calculated LDL-C LS mean (SE), Change from Baseline (Week 12, listed as ATV 80): −17.9 (3.4) | Calculated LDL-C LS mean (SE), Value (mg/dL) (Week 12, listed as ATV 80): 90.8 (3.4) mg/dL | Calculated LDL-C LS mean (SE), % Change from Baseline (Week 16, listed as ATV 40): −8.2 (3.9) % | Calculated LDL-C LS mean (SE), Change from Baseline (Week 16, listed as ATV 40): −10.9 (4.3) | Calculated LDL-C LS mean (SE), Value (mg/dL) (Week 16, listed as ATV 40): 90.9 (4.3) mg/dL | Calculated LDL-C LS mean (SE), % Change from Baseline (Week 16, listed as ATV 80): −8.0 (3.4) % | Calculated LDL-C LS mean (SE), Change from Baseline (Week 16, listed as ATV 80): −11.3 (3.8) | Calculated LDL-C LS mean (SE), Value (mg/dL) (Week 16, listed as ATV 80): 97.4 (3.8) mg/dL | Calculated LDL-C LS mean (SE), % Change from Baseline (Week 24, listed as ATV 40): −5.0 (4.6) % | Calculated LDL-C LS mean (SE), Change from Baseline (Week 24, listed as ATV 40): −7.9 (4.7) | Calculated LDL-C LS mean (SE), Value (mg/dL) (Week 24, listed as ATV 40): 93.9 (4.7) mg/dL | Calculated LDL-C LS mean (SE), % Change from Baseline (Week 24, listed as ATV 80): −4.8 (4.2) % | Calculated LDL-C LS mean (SE), Change from Baseline (Week 24, listed as ATV 80): −8.7 (4.5) | Calculated LDL-C LS mean (SE), Value (mg/dL) (Week 24, listed as ATV 80): 100.0 (4.5) mg/dL | reduced LDL-C levels by (atorvastatin 20 mg regimen, add-on ezetimibe or doubling of atorvastatin dose): 5.0% | reduced LDL-C levels by (atorvastatin 40 mg regimen, add-on ezetimibe, doubling of atorvastatin dose or switch to rosuvastatin 40 mg): 4.8% | Proportion of Patients Reaching LDL-C goal (%) (listed as ATV 40): 34.5% | Proportion of Patients Reaching LDL-C goal (%) (listed as ATV 80): 15.4%

mAb316P + ATV 20: treatment arm: mAb316P 75/150 mg Q2W + atorvastatin 20 mg daily
LDL-C W24 % change from baseline, LS mean (SE): −44.1% | Calculated LDL-C LS mean (SE), % Change from Baseline (Week 4): −53.3 (3.4) % | Calculated LDL-C LS mean (SE), Change from Baseline (Week 4): −55.8 (3.5) | Calculated LDL-C LS mean (SE), Value (mg/dL) (Week 4): 46.0 (3.5) mg/dL | Calculated LDL-C LS mean (SE), % Change from Baseline (Week 8): −51.2 (3.8) % | Calculated LDL-C LS mean (SE), Change from Baseline (Week 8): −51.4 (4.1) | Calculated LDL-C LS mean (SE), Value (mg/dL) (Week 8): 50.4 (4.1) mg/dL | Calculated LDL-C LS mean (SE), % Change from Baseline (Week 12): −48.4 (3.8) % | Calculated LDL-C LS mean (SE), Change from Baseline (Week 12): −49.0 (4.2) | Calculated LDL-C LS mean (SE), Value (mg/dL) (Week 12): 52.8 (4.2) mg/dL | Calculated LDL-C LS mean (SE), % Change from Baseline (Week 16): −53.8 (3.9) % | Calculated LDL-C LS mean (SE), Change from Baseline (Week 16): −54.8 (4.3) | Calculated LDL-C LS mean (SE), Value (mg/dL) (Week 16): 47.0 (4.3) mg/dL | Calculated LDL-C LS mean (SE), % Change from Baseline (Week 24): −44.1 (4.5) % | Calculated LDL-C LS mean (SE), Change from Baseline (Week 24): −47.5 (4.7) | Calculated LDL-C LS mean (SE), Value (mg/dL) (Week 24): 54.3 (4.7) mg/dL | Proportion of Patients Reaching LDL-C goal (%): 87.2%
